Experimental data taken from PMC10643470, “Knockout or inhibition of USP30 protects dopaminergic neurons in a Parkinson’s disease mouse model” (Nature Communications, 2023).
Where “and” joins values, the source holds several entries; their conditions need not be identical. Equal entries are not always repeated. Entries after “also recorded” stand apart in the source; their conditions may differ. Where two headings read alike, the source gives them in different places.

What was measured:
ATXN3L = ATXN3L (Homo sapiens, UniProt Q9H3M9); assay: DUB/cathepsin selectivity biochemical assay
Sequence of ATXN3L (Q9H3M9 whole entry, species assumed): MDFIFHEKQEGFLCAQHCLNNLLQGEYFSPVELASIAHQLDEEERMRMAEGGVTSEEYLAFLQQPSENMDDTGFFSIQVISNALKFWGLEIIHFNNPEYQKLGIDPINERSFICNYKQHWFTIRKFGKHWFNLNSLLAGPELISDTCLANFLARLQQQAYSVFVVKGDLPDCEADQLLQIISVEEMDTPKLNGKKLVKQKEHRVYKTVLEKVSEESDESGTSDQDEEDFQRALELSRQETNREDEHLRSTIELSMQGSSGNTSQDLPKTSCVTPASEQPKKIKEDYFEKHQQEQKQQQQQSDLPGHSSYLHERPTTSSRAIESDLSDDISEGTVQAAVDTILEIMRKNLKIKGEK

[1] = system: AAV-A53T-SNCA PD mouse model; assay: Total αSyn and phospho-S129 αSyn immunostaining in SNpc, AAV-A53T-SNCA mouse model (compound study); type: in vivo
Excerpt: For the compound study, the fixed, cryoprotected and frozen midbrain samples were sectioned as coronal sections at 100 µm intervals through SNpc and ventral tegmental area (VTA) and mounted on glass slides. Sectioning was started at −2.6 mm from bregma and continued to −3.7 mm from bregma in the AP axis (coordinates based on Franklin & Paxinos: The Mouse Brain in Stereotaxic Coordinates). For the immunostaining, the sections were stained with anti-TH following permeabilization. The stained sections were scanned with the Olympus VS120 slide scanner and analyzed with a VIS-Visiopharm Integrator System (Visiopharm, Denmark) by a blinded data analyst. All cells of interest with visible nuclei were labeled manually and counted using an APP (Analysis Protocol Package), scaled by section thickness and sectioning interval to estimate the total cell population in the SNpc. For immunostaining of Ser129 αSyn phosphorylation, TSA amplification was used with primary antibody ab51253 (Abcam). Blinded analysis was used, and positive cells per area were determined. For dual IF IHC of Iba1 (WAKO) and GFAP (ab4674 – Abcam), the stained sections were scanned and analyzed by a blinded data analyst. Analysis determines the percentage of positive staining area [%area = (stained area/region area) * (100)]. To calculate % of stained area, the same threshold value was applied to all sections with the same antibody staining. All pixels above the threshold value were considered positive. All striatal densitometry and neuronal counting data for both KO and inhibitor studies were obtained by an investigator blinded to genotype and treatment.

UchL5 = UchL5 (Homo sapiens, UniProt Q9Y5K5); assay: DUB/cathepsin selectivity biochemical assay
Sequence of UchL5 (Q9Y5K5 whole entry, species assumed): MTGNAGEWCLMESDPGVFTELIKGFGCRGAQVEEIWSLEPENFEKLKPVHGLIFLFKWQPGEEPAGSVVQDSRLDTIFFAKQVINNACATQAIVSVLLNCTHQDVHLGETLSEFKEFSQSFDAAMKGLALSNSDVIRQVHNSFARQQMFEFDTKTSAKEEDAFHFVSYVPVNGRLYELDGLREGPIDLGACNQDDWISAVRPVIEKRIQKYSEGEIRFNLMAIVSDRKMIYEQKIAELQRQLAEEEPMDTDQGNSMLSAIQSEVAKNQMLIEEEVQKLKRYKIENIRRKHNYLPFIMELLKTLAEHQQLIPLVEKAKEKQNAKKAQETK

[2] = system: TOM20 ubiquitylation in HeLa cells overexpressing PARKIN; assay: Cell TOM20 ubiquitination assay (HeLa YFP-Parkin + A/O); type: cell-based, human; conditions: for EC50: Homo sapiens, 1.5 h
Procedure: Hela cells overexpressing YFP-Parkin were treated with 1 µM Antimycin A and 1 µM Oligomycin A (AA/OA) and test compound or DMSO for 90 mins. Following treatment, media was removed, and cells were washed in DPBS and then lysed in NP40 lysis buffer on ice. […] The bands corresponding to all forms of ubiquitylated TOM20 were quantified and normalized to the same bands for AA/OA treated cells.

CYLD = CYLD (Homo sapiens, UniProt Q9NQC7); assay: DUB/cathepsin selectivity biochemical assay
Sequence of CYLD (Q9NQC7 whole entry, species assumed): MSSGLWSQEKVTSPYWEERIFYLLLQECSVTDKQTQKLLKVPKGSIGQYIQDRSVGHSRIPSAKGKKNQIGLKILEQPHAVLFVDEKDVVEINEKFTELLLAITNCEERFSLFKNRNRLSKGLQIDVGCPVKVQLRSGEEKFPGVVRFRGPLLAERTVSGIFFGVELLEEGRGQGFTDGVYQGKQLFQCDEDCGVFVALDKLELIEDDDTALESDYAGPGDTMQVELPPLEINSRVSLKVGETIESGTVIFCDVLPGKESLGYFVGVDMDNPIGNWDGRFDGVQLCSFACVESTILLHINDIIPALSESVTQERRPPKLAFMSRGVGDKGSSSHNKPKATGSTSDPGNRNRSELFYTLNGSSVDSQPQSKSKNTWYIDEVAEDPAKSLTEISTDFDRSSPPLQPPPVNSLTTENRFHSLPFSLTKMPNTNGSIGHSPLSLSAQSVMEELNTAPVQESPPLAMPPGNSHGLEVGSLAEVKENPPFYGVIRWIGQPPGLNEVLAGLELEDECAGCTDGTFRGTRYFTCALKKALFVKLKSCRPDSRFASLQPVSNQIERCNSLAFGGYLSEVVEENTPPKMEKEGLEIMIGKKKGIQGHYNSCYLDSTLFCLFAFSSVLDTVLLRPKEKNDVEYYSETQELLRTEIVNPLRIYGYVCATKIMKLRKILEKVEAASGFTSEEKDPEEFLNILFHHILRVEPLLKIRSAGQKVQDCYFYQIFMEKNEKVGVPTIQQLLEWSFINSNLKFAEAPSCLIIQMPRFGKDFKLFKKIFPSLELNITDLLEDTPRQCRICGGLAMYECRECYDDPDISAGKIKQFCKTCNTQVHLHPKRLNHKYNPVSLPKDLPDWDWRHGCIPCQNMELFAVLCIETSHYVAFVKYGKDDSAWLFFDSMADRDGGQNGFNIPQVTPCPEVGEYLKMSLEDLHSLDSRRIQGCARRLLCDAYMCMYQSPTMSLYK

MINDY2 = MINDY2 (Homo sapiens, UniProt Q8NBR6); assay: DUB/cathepsin selectivity biochemical assay
Sequence of MINDY2 (Q8NBR6 whole entry, species assumed): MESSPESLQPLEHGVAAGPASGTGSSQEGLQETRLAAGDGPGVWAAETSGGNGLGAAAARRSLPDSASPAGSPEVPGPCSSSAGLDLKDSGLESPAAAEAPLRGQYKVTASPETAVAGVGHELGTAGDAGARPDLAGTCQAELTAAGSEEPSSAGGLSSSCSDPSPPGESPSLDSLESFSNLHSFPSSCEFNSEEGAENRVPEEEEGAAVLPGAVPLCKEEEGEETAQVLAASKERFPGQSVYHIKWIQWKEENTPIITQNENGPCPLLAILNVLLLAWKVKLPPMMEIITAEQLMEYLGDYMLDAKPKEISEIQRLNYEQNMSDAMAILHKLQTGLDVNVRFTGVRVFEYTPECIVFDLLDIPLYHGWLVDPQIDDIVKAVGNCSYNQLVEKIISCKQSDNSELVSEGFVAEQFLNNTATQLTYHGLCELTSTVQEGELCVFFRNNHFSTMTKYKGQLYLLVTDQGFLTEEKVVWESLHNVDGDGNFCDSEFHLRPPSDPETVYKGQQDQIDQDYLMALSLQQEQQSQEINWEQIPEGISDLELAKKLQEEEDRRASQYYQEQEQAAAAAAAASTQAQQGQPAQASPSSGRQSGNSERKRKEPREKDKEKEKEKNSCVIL

[3] = In-life whole blood compound levels in the A53T model; type: in vivo, mouse; conditions: for Blood exposure / Cmax: A53T model; for Blood exposure: 0.5-6 h sampling; for In-life whole blood compound level (Figure 4d): individual animals; for Cmax: mouse, whole blood, seven days before end of study
Procedure: In-life blood samples were taken at 0.5, 1, 2, 4, 6 h, timed relative to the first daily dose, from n = 3 animals per time point to give a composite profile from animals in each group. The in-life blood samples were collected from the saphenous vein (20 µL), transferred in an Eppendorf tube immediately and mixed with an equal volume (20 µL) of ice-cold Serine esterase inhibitor, trichlorfon (100 µM), the sample was frozen, stored at −80 °C and compound levels analyzed by LC-MS.

USP15 = USP15 (Homo sapiens, UniProt Q9Y4E8); assay: DUB/cathepsin selectivity biochemical assay
Sequence of USP15 (Q9Y4E8 whole entry, species assumed): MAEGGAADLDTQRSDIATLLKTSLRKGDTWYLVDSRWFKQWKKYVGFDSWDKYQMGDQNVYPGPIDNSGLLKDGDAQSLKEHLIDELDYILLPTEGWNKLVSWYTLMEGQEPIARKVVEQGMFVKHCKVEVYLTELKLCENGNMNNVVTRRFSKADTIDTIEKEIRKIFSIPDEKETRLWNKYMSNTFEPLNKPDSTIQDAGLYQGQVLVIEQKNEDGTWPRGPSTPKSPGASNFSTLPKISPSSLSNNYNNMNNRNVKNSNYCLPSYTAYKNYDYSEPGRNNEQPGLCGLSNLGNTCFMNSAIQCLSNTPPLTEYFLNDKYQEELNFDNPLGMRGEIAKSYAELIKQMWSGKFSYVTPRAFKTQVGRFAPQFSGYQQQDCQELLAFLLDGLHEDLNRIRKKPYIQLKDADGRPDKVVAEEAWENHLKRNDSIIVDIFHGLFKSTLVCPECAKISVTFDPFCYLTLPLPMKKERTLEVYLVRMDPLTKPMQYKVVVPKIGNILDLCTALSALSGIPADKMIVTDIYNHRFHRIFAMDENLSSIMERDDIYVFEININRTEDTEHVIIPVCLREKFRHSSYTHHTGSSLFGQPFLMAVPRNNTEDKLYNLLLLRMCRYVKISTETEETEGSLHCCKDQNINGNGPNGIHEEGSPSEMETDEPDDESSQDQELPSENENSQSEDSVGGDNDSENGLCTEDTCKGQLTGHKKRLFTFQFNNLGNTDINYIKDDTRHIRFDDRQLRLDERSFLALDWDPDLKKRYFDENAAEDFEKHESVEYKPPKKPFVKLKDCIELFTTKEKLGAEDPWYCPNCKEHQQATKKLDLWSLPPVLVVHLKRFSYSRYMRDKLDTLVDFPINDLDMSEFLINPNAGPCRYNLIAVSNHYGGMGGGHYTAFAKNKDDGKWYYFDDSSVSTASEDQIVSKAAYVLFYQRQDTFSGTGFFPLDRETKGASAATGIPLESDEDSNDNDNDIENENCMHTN

USP8 = USP8 (Homo sapiens, UniProt P40818); assay: DUB/cathepsin selectivity biochemical assay
Sequence of USP8 (P40818 whole entry, species assumed): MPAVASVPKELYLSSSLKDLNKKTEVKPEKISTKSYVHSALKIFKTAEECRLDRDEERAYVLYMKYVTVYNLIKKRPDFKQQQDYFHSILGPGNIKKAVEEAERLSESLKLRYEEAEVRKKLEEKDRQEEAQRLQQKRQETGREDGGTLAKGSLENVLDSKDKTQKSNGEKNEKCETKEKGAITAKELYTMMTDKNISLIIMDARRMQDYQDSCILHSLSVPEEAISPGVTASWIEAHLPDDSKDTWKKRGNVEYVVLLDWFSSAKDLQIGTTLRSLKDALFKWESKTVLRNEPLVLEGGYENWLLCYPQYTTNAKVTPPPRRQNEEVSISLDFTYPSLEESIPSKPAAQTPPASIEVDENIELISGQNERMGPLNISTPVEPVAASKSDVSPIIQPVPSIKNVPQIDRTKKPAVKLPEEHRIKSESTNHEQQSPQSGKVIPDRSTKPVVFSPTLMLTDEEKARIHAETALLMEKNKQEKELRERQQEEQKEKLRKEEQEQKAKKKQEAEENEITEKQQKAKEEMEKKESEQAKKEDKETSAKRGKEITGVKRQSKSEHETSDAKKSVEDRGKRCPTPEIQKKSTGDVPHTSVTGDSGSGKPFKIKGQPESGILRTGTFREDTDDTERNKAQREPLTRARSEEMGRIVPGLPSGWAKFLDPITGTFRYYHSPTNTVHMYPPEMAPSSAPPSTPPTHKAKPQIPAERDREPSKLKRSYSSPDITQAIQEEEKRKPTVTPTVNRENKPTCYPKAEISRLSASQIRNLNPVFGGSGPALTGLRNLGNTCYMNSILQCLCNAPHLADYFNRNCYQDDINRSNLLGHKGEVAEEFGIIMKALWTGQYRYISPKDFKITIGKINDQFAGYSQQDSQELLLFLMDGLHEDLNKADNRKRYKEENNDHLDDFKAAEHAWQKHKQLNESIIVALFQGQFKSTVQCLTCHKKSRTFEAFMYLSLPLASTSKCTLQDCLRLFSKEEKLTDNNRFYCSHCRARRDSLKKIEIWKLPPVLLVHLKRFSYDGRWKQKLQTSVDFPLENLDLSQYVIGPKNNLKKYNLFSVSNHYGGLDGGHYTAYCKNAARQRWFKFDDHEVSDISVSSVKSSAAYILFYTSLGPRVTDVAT

SH-SY5Y mito-QC cells = assay: Mitophagy (mito-QC) live imaging in SH-SY5Y cells; type: cell-based, human
Procedure: SH-SY5Y cells stably expressing mCherry-GFP-Fis1101-152 reporter (SH-SY5Y mito-QC) kindly provided by Dr I Ganley (MRC PPU, Dundee) were cultured in DMEM/F12 media supplemented with 1% L-glutamine, 1% penicillin/streptomycin, 1% non-essential amino acids, 10% fetal bovine serum at 37 °C and 5% CO2.
For inhibitor studies, live imaging was applied to mitophagy puncta analysis in SH-SY5Y mito-QC cells. SH-SY5Y mito-QC cells were plated overnight at 7000 cells/well into black walled PhenoPlate 96-well microplates in DMEM/F-12 (phenol red free) supplemented as above. SH-SY5Y mito-QC cells were incubated with NucBlue™ live stain for 20 mins then washed. […] Cells were live imaged using the Operetta CLS Type HH1600 (optical mode set to confocal, 40x water objective) at timepoints 0 h, 4 h, 20 h, 24 h, 48 h and 72 h. Images were acquired using the following channel settings: mCherry; excitation 530/60 nm, emission 570/650 nm, GFP; excitation 460/90 nm, emission 500/650 nm, Hoechst; excitation 355/85 nm, emission 430/500 nm. For all conditions tested, quantification of mitophagy was performed from three independent experiments (with three technical replicates capturing 11 fields of views, 6 z-stacks).
Image Quantification: For analysis of mitophagy, images were processed with the Harmony analysis software using the “SH-SY5Y-mito-QC_analysis 2” sequence. For mitolysosome identification the following analysis steps were performed: (1) Identification of the cell nuclei using Hoechst staining, (2) Identification of the cell cytoplasm using a deep phase contrast (DPC) image, (3) Identification of the mitochondrial network, using the Ser-Bright function on the mCherry channel within the cytoplasm, (4) Mitochondrial network partitioning using the FindSpots function, (5) Identification of mitophagic puncta with the partitioned mitochondrial network, using an mCherry:GFP ratio threshold of mean >+3 standard deviations from the 24 h DMSO only treated cells.

[4] = AAV-A53T + MTX115325 (50 mg/kg), Group 5, Left hemisphere, individual animal values (Animal ID in r3)
[5] = AAV-A53T + MTX115325 (50 mg/kg), Group 5, Right hemisphere, individual animal values (Animal ID in r3)

With C[C@@H]1[C@H]2CCN(C(=O)c3ncc(-c4ccnc(C#N)c4)o3)[C@H]2CN1C#N [MTX115325] the IC50 (ATXN3L) was 173 µM, the “Phosphorylated S129-αSyn” value ([1]; 50 mg/kg, SNpc) was “significantly reduced” and the “Figure S7c immunostaining quantification, Left” value [1, 4] was 0 (7×) and 0.04487 and 0.008105 and 0.007836 and 0.01908 and 0.009848 and 0.001515 and 0.003247 and 0.005828. For the same compound, the “Figure S7d immunostaining quantification, Left” value [1, 4] was 0 (10×) and 1.603 and 0.7671 and 1.12 and 0.7902, the “Figure S7c immunostaining quantification, Right” value [1, 5] was 0.007974 and 0.07707 and 0.1923 and 0.06947 and 0.001983 and 0 (5×) and 0.06633 and 0.1857 and 0.01165 and 0.002029 and 6.4046e-5 and the “Figure S7d immunostaining quantification, Right” value [1, 5] was 57.3627 and 99.9359 and 9.299 and 6.893 and 1.412 and 0 (4×) and 0.2913 and 18.3383 and 84.6359 and 0.2072 and 0.6527. For the same compound, the IC50 (UchL5) was greater than 300 µM, the “TOM20 ubiquitylation signal, MTX115325 + AO (Figure 4b)” value (shortened to “TOM20 ubiquitylation signal”) ([2]; 0.0001 µM) was 1.19 and the “TOM20 ubiquitylation signal” value ([2]; 0.0003 µM) was 1.5. The “TOM20 ubiquitylation signal” value ([2]; 0.001 µM) was 1.43, the “TOM20 ubiquitylation signal” value ([2]; 0.003 µM) was 1.6 and the “TOM20 ubiquitylation signal” value ([2]; 0.01 µM) was 2.01. For the same compound, the “TOM20 ubiquitylation signal” value ([2]; 0.03 µM) was 2.55, the “TOM20 ubiquitylation signal” value ([2]; 0.1 µM) was 3.08 and the “TOM20 ubiquitylation signal” value ([2]; 0.3 µM) was 3.55. The “TOM20 ubiquitylation signal” value ([2]; 1 µM) was 3.5, the “TOM20 ubiquitylation signal” value ([2]; 3 µM) was 3.33 and the “TOM20-Ub 1.5X interpolated value (representative profile, Fig. 4b)” value ([2]; HeLa cells, 90 min, representative concentration-response) was 0.0020 µM. The “TOM20-Ub EC1.5x” value ([2]; HeLa-PARKIN + A/O, 90 min) was 10 nM, the EC50 ([2]; HeLa cells, 90 min, representative concentration-response, read-out: TOM20-Ub EC50 (representative profile, Fig. 4b)) was 0.022 µM and the EC50 ([2]; HeLa-PARKIN + A/O, 90 min, read-out: TOM20-Ub EC50) was 0.032 µM. It also gave an IC50 (CYLD) greater than 300 µM, an IC50 (MINDY2) greater than 300 µM and a Blood exposure ([3]; 15 mg/kg BID oral) of 13606 ng·h/mL. For the same compound, the “In-life whole blood compound level (Figure 4d)” value ([3]; 15mg/kg, 0 hours) was 0, the “In-life whole blood compound level (Figure 4d)” value ([3]; 15mg/kg, 0.5 hours) was 6664.93 and 11816.1 and the “In-life whole blood compound level (Figure 4d)” value ([3]; 15mg/kg, 1 hour) was 7008.88 and 8260.64. For the same compound, the “In-life whole blood compound level (Figure 4d)” value ([3]; 15mg/kg, 2 hours) was 2278.7 and 2189.81, the “In-life whole blood compound level (Figure 4d)” value ([3]; 15mg/kg, 4 hours) was 404.48 and 419 and 425.15 and the “In-life whole blood compound level (Figure 4d)” value ([3]; 15mg/kg, 6 hours) was 92.39 and 277.42. The Blood exposure ([3]; 50 mg/kg BID oral) was 42959 ng·h/mL, the “In-life whole blood compound level (Figure 4d)” value ([3]; 50mg/kg, 0 hours) was 0 and the “In-life whole blood compound level (Figure 4d)” value ([3]; 50mg/kg, 0.5 hours) was 12073.7 and 13499.1 and 13769.4. The “In-life whole blood compound level (Figure 4d)” value ([3]; 50mg/kg, 1 hour) was 13326.8 and 14323.4 and 17878.5, the “In-life whole blood compound level (Figure 4d)” value ([3]; 50mg/kg, 2 hours) was 8220.29 and 5260.76 and the “In-life whole blood compound level (Figure 4d)” value ([3]; 50mg/kg, 4 hours) was 1244.02 and 1284.38. The “In-life whole blood compound level (Figure 4d)” value ([3]; 50mg/kg, 6 hours) was 402.46 and 633.68, the Cmax ([3]; 15 mg/kg BID oral) was 7550 ng/mL and the Cmax ([3]; 50 mg/kg BID oral) was 16400 ng/mL. For the same compound, the IC50 (USP15) was greater than 300 µM, the IC50 (USP8) was greater than 300 µM and the Increase in mitophagy (SH-SY5Y mito-QC cells; 37 nM, 72 h, with 0.1 mM A/O as printed) was 22%. For the same compound, the “Maximum increase in mitophagy compared to baseline” value (SH-SY5Y mito-QC cells; 1 µM, 72 h, with 0.1 mM A/O as printed) was 54% and the “Mitophagy (mito-QC)” value (SH-SY5Y mito-QC cells; 72 h in combination with sub-maximal A/O) was “significantly potentiates mitophagy induction; also recorded: concentration-dependent increase in mitophagy”.
